Source: ChEMBL document CHEMBL4507279, “Data for DCP probe BI-9627” (2021)

Key:
[1] = tested on: Tyrosine-protein kinase ABL1 (Homo sapiens), P00519 [Q252H]; conditions: Compound concentration 1000.0 nM
[2] = target: Calcium/calmodulin-dependent protein kinase type II subunit delta (Homo sapiens) (UniProt Q13557); conditions: Compound concentration 1000.0 nM
[3] = target: Calcium/calmodulin-dependent protein kinase kinase 2 (Homo sapiens) (UniProt Q96RR4); conditions: Compound concentration 1000.0 nM
Chain of Calcium/calmodulin-dependent protein kinase kinase 2 (Homo sapiens) (Q96RR4 2-588 limits assumed): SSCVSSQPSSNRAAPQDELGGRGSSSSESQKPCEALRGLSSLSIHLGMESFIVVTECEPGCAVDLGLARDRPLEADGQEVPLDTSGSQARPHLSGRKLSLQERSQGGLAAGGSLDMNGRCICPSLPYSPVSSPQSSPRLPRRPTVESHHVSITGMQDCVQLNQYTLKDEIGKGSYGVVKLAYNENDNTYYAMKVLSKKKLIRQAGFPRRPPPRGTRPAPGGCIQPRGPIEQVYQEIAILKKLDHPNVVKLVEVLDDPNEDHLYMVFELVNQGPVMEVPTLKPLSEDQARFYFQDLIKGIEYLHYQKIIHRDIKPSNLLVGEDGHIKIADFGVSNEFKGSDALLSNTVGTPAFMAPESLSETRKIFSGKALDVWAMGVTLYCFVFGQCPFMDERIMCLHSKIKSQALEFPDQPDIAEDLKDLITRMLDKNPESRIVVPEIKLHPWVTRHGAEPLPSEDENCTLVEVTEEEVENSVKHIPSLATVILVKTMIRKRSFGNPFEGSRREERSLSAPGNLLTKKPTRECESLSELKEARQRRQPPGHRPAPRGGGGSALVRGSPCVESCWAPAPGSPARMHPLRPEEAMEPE

[4] = target: Cyclin-dependent kinase 2 (Homo sapiens) (UniProt P24941); conditions: Compound concentration 1000.0 nM
[5] = target: Cyclin-dependent kinase 4 (Homo sapiens) (UniProt P11802); conditions: Compound concentration 1000.0 nM
[6] = target: Cyclin-dependent kinase-like 3 (Homo sapiens) (UniProt Q8IVW4); conditions: Compound concentration 1000.0 nM
[7] = target: Serine/threonine-protein kinase Chk1 (Homo sapiens) (UniProt O14757); conditions: Compound concentration 1000.0 nM
[8] = target: Macrophage colony-stimulating factor 1 receptor (Homo sapiens) (UniProt P07333); conditions: Compound concentration 1000.0 nM
[9] = target: Discoidin domain-containing receptor 2 (Homo sapiens) (UniProt Q16832); conditions: Compound concentration 1000.0 nM
Chain of Discoidin domain-containing receptor 2 (Homo sapiens) (Q16832 whole entry, the tested form may be a part): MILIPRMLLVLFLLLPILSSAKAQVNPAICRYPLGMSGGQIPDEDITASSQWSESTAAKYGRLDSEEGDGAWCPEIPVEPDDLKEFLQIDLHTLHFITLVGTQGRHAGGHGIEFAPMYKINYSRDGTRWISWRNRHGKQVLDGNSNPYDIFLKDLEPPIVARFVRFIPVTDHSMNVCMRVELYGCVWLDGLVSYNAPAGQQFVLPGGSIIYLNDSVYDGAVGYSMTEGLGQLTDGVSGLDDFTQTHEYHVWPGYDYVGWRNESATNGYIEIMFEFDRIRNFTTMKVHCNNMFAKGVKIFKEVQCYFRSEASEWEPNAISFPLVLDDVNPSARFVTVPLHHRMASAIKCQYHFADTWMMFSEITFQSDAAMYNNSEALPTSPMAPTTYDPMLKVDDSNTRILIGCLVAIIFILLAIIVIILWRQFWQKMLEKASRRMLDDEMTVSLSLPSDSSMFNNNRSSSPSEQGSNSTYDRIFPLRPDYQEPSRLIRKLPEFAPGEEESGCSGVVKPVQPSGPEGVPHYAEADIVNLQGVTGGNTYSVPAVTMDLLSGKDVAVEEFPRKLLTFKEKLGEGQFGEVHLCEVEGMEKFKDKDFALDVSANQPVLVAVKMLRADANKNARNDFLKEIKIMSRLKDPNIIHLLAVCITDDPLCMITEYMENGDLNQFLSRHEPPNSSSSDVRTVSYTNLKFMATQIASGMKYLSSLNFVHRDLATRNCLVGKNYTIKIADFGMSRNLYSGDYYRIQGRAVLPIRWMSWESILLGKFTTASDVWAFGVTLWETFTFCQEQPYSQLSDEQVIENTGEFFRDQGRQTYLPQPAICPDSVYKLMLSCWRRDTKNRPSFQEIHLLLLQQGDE

[10] = target: Mitogen-activated protein kinase kinase kinase 12 (Homo sapiens) (UniProt Q12852); conditions: Compound concentration 1000.0 nM
Chain of Mitogen-activated protein kinase kinase kinase 12 (Homo sapiens) (Q12852 whole entry): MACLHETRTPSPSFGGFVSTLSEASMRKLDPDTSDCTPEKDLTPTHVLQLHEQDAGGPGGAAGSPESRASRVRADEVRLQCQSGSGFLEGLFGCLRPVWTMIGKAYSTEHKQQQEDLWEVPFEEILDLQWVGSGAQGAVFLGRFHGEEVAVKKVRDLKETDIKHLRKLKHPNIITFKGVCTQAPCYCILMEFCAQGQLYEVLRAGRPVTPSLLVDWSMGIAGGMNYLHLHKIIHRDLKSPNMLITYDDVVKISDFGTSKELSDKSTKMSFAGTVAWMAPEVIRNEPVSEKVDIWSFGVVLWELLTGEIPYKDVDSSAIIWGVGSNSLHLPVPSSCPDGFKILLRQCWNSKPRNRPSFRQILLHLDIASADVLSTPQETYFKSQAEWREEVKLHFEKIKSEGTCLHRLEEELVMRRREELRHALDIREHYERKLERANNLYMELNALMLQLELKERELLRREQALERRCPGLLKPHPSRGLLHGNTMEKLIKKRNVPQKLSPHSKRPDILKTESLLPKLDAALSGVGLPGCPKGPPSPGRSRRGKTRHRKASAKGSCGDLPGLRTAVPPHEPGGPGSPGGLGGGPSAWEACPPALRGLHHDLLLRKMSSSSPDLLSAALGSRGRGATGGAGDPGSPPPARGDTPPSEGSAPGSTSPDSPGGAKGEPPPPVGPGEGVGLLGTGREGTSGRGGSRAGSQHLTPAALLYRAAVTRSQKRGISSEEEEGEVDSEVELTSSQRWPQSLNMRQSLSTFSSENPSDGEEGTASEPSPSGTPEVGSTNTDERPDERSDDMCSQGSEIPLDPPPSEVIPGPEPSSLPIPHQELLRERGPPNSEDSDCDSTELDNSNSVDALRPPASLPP

[11] = target: Serine/threonine-protein kinase MRCK gamma (Homo sapiens) (UniProt Q6DT37); conditions: Compound concentration 1000.0 nM
[12] = target: Ephrin type-A receptor 1 (Homo sapiens) (UniProt P21709); conditions: Compound concentration 1000.0 nM
[13] = target: Ephrin type-A receptor 3 (Homo sapiens) (UniProt P29320); conditions: Compound concentration 1000.0 nM
[14] = target: Receptor tyrosine-protein kinase erbB-4 (Homo sapiens) (UniProt Q15303); conditions: Compound concentration 1000.0 nM
[15] = target: Fibroblast growth factor receptor 4 (Homo sapiens) (UniProt P22455); conditions: Compound concentration 1000.0 nM
[16] = target: Receptor-type tyrosine-protein kinase FLT3 (Homo sapiens) (UniProt P36888); conditions: Compound concentration 1000.0 nM
[17] = tested on: Receptor-type tyrosine-protein kinase FLT3 (Homo sapiens), P36888 [D835Y]; conditions: Compound concentration 1000.0 nM
[18] = tested on: Receptor-type tyrosine-protein kinase FLT3 (Homo sapiens), P36888 [UNDEFINED MUTATION]; conditions: Compound concentration 1000.0 nM
[19] = target: Vascular endothelial growth factor receptor 3 (Homo sapiens) (UniProt P35916); conditions: Compound concentration 1000.0 nM
[20] = target: Tyrosine-protein kinase Fyn (Homo sapiens) (UniProt P06241); conditions: Compound concentration 1000.0 nM
[21] = target: Rhodopsin kinase GRK1 (Homo sapiens) (UniProt Q15835); conditions: Compound concentration 1000.0 nM
[22] = target: Inhibitor of nuclear factor kappa-B kinase subunit beta (Homo sapiens) (UniProt O14920); conditions: Compound concentration 1000.0 nM
[23] = target: Interleukin-1 receptor-associated kinase 4 (Homo sapiens) (UniProt Q9NWZ3); conditions: Compound concentration 1000.0 nM
Chain of Interleukin-1 receptor-associated kinase 4 (Homo sapiens) (Q9NWZ3 whole entry): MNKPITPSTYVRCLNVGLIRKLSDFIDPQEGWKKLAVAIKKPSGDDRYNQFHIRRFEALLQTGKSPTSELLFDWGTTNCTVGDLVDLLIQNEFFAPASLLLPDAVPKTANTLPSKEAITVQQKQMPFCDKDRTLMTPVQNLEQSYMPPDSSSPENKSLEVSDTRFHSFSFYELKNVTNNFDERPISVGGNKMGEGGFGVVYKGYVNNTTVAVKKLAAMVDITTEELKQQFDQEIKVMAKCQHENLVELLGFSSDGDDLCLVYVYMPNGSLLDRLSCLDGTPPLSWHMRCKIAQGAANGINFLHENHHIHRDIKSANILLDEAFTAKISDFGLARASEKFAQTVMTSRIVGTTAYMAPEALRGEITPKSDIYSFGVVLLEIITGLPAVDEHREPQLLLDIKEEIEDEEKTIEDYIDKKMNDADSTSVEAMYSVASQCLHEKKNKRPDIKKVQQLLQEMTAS

[24] = target: Tyrosine-protein kinase JAK2 (Homo sapiens) (UniProt O60674); conditions: Compound concentration 1000.0 nM
[25] = target: Mitogen-activated protein kinase 10 (Homo sapiens) (UniProt P53779); conditions: Compound concentration 1000.0 nM
[26] = target: Serine/threonine-protein kinase LATS2 (Homo sapiens) (UniProt Q9NRM7); conditions: Compound concentration 1000.0 nM
Chain of Serine/threonine-protein kinase LATS2 (Homo sapiens) (Q9NRM7 whole entry): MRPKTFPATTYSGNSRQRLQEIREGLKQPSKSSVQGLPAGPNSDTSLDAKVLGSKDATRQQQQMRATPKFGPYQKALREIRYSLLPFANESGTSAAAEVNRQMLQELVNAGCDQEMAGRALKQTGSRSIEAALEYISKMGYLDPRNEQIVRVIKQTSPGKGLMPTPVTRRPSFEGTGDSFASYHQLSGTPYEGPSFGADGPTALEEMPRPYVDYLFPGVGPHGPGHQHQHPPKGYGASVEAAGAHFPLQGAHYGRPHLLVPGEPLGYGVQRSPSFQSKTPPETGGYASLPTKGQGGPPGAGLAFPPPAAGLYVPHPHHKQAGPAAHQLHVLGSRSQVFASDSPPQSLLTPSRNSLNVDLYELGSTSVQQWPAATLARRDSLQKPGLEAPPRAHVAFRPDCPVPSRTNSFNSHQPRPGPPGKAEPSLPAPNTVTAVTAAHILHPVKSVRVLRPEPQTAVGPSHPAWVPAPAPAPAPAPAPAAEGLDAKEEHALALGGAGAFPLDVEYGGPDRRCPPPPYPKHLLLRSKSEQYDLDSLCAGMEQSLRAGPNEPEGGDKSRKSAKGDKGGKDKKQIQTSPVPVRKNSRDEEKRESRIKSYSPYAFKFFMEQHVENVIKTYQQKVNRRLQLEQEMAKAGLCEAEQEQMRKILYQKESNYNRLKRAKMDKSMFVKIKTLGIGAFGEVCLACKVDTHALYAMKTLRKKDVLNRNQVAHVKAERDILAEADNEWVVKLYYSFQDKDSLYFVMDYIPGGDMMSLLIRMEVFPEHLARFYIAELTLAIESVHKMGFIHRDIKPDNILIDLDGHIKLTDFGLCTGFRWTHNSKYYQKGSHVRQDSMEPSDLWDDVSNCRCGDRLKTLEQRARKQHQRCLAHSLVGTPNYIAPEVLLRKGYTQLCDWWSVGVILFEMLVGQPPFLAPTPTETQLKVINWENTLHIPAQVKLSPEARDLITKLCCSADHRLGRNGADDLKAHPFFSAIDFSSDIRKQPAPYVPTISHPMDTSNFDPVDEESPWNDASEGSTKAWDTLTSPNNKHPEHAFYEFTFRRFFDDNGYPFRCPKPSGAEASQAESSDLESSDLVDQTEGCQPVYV

[27] = target: Serine/threonine-protein kinase MARK1 (Homo sapiens) (UniProt Q9P0L2); conditions: Compound concentration 1000.0 nM
[28] = target: Maternal embryonic leucine zipper kinase (Homo sapiens) (UniProt Q14680); conditions: Compound concentration 1000.0 nM
[29] = target: Serine/threonine-protein kinase 38 (Homo sapiens) (UniProt Q15208); conditions: Compound concentration 1000.0 nM
[30] = target: Serine/threonine-protein kinase PAK 5 (Homo sapiens) (UniProt Q9P286); conditions: Compound concentration 1000.0 nM
[31] = target: 3-phosphoinositide-dependent protein kinase 1 (Homo sapiens) (UniProt O15530); conditions: Compound concentration 1000.0 nM
Chain of 3-phosphoinositide-dependent protein kinase 1 (Homo sapiens) (O15530 whole entry, the tested form may be a part): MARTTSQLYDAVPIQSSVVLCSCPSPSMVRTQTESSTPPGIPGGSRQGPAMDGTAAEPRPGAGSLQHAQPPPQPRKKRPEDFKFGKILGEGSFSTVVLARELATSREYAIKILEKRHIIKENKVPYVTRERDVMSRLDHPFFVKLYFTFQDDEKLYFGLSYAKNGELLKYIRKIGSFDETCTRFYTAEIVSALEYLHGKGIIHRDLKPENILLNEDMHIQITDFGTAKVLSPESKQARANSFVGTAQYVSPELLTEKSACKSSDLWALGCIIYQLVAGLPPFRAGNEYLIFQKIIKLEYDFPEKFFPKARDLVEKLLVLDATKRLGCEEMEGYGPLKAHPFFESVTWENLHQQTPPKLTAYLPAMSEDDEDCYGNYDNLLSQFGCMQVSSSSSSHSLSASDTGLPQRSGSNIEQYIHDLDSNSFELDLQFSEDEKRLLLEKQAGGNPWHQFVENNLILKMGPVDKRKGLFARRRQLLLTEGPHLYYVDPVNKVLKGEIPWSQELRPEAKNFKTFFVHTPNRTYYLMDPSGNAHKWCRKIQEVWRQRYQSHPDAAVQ

[32] = target: Phosphatidylinositol 4-phosphate 3-kinase C2 domain-containing subunit beta (Homo sapiens) (UniProt O00750); conditions: Compound concentration 1000.0 nM
[33] = target: Phosphatidylinositol 4,5-bisphosphate 3-kinase catalytic subunit alpha isoform (Homo sapiens) (UniProt P42336); conditions: Compound concentration 1000.0 nM
[34] = target: Phosphatidylinositol 5-phosphate 4-kinase type-2 beta (Homo sapiens) (UniProt P78356); conditions: Compound concentration 1000.0 nM
[35] = target: Serine/threonine-protein kinase PLK1 (Homo sapiens) (UniProt P53350); conditions: Compound concentration 1000.0 nM
[36] = target: Serine/threonine-protein kinase PLK4 (Homo sapiens) (UniProt O00444); conditions: Compound concentration 1000.0 nM
[37] = target: Protein kinase C delta type (Homo sapiens) (UniProt Q05655); conditions: Compound concentration 1000.0 nM
[38] = target: Ribosomal protein S6 kinase alpha-6 (Homo sapiens) (UniProt Q9UK32); conditions: Compound concentration 1000.0 nM
[39] = target: Ribosomal protein S6 kinase beta-1 (Homo sapiens) (UniProt P23443); conditions: Compound concentration 1000.0 nM
[40] = target: Tyrosine-protein kinase receptor Tie-1 (Homo sapiens) (UniProt P35590); conditions: Compound concentration 1000.0 nM
[41] = target: Transient receptor potential cation channel subfamily M member 6 (Homo sapiens) (UniProt Q9BX84); conditions: Compound concentration 1000.0 nM
[42] = target: GABA-A receptor; anion channel (Rattus norvegicus) (UniProt O09028+P15431+P18506+P18508+P19969+P20236+P23574+P23576+P28471+P28473+P30191+P62813+P63079+P63138+Q91ZM7+Q9ES14); conditions: Compound concentration 10.0 uM
[43] = target: Histamine H4 receptor (Homo sapiens) (UniProt Q9H3N8); conditions: Compound concentration 10.0 uM

Chain of Calcium/calmodulin-dependent protein kinase type II subunit delta (Homo sapiens) (Q13557 whole entry): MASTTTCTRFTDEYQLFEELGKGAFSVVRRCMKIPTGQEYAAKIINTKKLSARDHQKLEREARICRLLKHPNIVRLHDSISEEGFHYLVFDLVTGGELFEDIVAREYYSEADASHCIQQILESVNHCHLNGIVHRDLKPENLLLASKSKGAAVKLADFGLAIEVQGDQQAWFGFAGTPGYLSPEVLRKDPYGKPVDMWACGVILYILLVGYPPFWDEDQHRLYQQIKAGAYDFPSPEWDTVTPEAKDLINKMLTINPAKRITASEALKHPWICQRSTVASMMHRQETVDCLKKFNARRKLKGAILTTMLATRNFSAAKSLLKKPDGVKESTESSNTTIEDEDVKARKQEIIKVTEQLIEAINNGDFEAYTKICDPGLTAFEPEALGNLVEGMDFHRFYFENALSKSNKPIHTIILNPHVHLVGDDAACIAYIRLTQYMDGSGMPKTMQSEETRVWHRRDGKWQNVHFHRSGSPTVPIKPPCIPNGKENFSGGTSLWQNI

CC(=O)N1CCC(c2ccc(C(=O)NC3=NCCN3)cc2C(F)(F)F)CC1 [BI 0054]
inactive: residual activity [1] 88% | residual activity [2] 100% | residual activity [3] 100% | residual activity [4] 100% | residual activity [5] 98% | residual activity [6] 100% | residual activity [7] 100% | residual activity [8] 94% | residual activity [9] 96% | residual activity [10] 100% | residual activity [11] 93% | residual activity [12] 88% | residual activity [13] 95% | residual activity [14] 100% | residual activity [15] 88% | residual activity [16] 100% | residual activity [17] 98% | residual activity [18] 88% | residual activity [19] 98% | residual activity [20] 76% | residual activity [21] 95% | residual activity [22] 85% | residual activity [23] 89% | residual activity [24] 100% | residual activity [25] 100% | residual activity [26] 91% | residual activity [27] 100% | residual activity [28] 100% | residual activity [29] 85% | residual activity [30] 87% | residual activity [31] 94% | residual activity [32] 50% | residual activity [33] 100% | residual activity [34] 75% | residual activity [35] 88% | residual activity [36] 100% | residual activity [37] 100% | residual activity [38] 94% | residual activity [39] 100% | residual activity [40] 82% | residual activity [41] 90% | inhibition [42] 17% | inhibition [43] 9.81%

CC(=O)N1CCC(c2ccc(C(=O)NC(=N)N)cc2C(F)(F)F)CC1 [BI 9627]
inactive: residual activity [1] 79% | residual activity [2] 100% | residual activity [3] 100% | residual activity [4] 100% | residual activity [5] 100% | residual activity [6] 100% | residual activity [7] 95% | residual activity [8] 85% | residual activity [9] 100% | residual activity [10] 100% | residual activity [11] 92% | residual activity [12] 100% | residual activity [13] 100% | residual activity [14] 100% | residual activity [15] 100% | residual activity [16] 100% | residual activity [17] 100% | residual activity [18] 80% | residual activity [19] 89% | residual activity [20] 100% | residual activity [21] 98% | residual activity [22] 100% | residual activity [23] 100% | residual activity [24] 100% | residual activity [25] 100% | residual activity [26] 100% | residual activity [27] 100% | residual activity [28] 100% | residual activity [29] 96% | residual activity [30] 100% | residual activity [31] 100% | residual activity [32] 95% | residual activity [33] 100% | residual activity [34] 77% | residual activity [35] 90% | residual activity [36] 100% | residual activity [37] 100% | residual activity [38] 96% | residual activity [39] 100% | residual activity [40] 100% | residual activity [41] 98% | inhibition [42] 14.6% | inhibition [43] 7.11%
